Patent US20240199587A1, “HETEROCYCLIC COMPOUNDS” (Hoffmann-La Roche Inc., priority 2021, published 2024)
pIC50: −log10 of the molar value.

Biological target: T1, MAGL (Homo sapiens, UniProt Q99685)
T1 sequence (Q99685 1-303): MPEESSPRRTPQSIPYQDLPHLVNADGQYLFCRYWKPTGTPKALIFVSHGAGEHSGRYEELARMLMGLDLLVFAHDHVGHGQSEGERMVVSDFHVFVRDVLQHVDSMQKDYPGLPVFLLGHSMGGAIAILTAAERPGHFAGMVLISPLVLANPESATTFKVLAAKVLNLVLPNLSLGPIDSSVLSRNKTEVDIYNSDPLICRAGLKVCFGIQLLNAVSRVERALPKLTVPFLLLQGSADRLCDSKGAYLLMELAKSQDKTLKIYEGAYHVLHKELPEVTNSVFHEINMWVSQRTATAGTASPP
Experiment: 2-AG assay (MAGL inhibitory activity, hydrolysis of 2-arachidonoylglycerol to arachidonic acid followed by mass spectrometry)
Assay type: biochemical
Details: 8 μM 2-arachidonoylglycerol, 15 min pre-incubation, 30 min incubation at RT, RapidFire MS readout
Text: Compounds of formula (I) were profiled for MAGL inhibitory activity by determining the enzymatic activity by following the hydrolysis of the natural substrate 2-arachidonoylglycerol (2-AG) resulting in arachidonic acid, which can be followed by mass spectrometry. This assay is hereinafter abbreviated “2-AG assay”.
Compounds of formula (I) were profiled for MAGL inhibitory activity by determining the enzymatic activity by following the hydrolysis of the natural substrate 2-arachidonoylglycerol (2-AG) resulting in arachidonic acid, which can be followed by mass spectrometry. This assay is hereinafter abbreviated “2-AG assay”. The 2-AG assay was carried out in 384 well polypropylene assay plates. […] Compound dilutions were added to MAGL protein in assay buffer (50 mM TRIS, 1 mM EDTA, 0.01% (v/v) Tween-20, 2.5% (v/v) DMSO). After shaking, the plate was incubated for 15 min at RT. To start the reaction, 2-arachidonoylglycerol in assay buffer was added. The final concentrations in the assay was […] for MAGL protein and 8 μM 2-arachidonoylglyerol. After shaking and 30 min incubation at RT, the reaction was quenched by the addition of two assay volumes of acetonitrile containing 4 μM of d8-arachidonic acid. The amount of arachidonic acid formed was traced by an online SPE system (Agilent Rapidfire) coupled to a triple quadrupole mass spectrometer. A C18 SPE cartridge (Agilent G9205A) was used in an acetonitrile/water liquid setup. The mass spectrometer was operated in negative electrospray mode following the mass transitions 303.1→259.1 for arachidonic acid and 311.1→267.0 for d8-arachidonic acid. The activity of the compounds was calculated based on the ratio of intensities [arachidonic acid/d8-arachidonic acid].

| Structure (SMILES) | pIC50 |
| --- | --- |
| CC(C)(C)c1nc(-c2ccc(C(=O)N3CC4(CC(n5cc(Cl)cn5)C4)C3)cc2)no1 [Example 6, [4-(5-tert-butyl-1,2,4-oxadiazol-3-yl)phenyl]-[6-(4-chloropyrazol-1-yl)-2-azaspiro[3.3]heptan-2-yl]methanone] | 6.72 |
| CC(C)(C)c1nc(-c2ccc(C(=O)N3CC4(CC(n5cc(C6CC6)cn5)C4)C3)cc2)no1 [Example 7, [4-(5-tert-butyl-1,2,4-oxadiazol-3-yl)phenyl]-[6-(4-cyclopropylpyrazol-1-yl)-2-azaspiro[3.3]heptan-2-yl]methanone] | 6.67 |
| CC(C)(C)c1nc(-c2ccc(C(=O)N3CC4(CC(n5ccc(C#N)n5)C4)C3)cc2)no1 [Example 8, 1-[2-[4-(5-tert-butyl-1,2,4-oxadiazol-3-yl)benzoyl]-2-azaspiro[3.3]heptan-6-yl]pyrazole-3-carbonitrile] | 6.31 |
| CC(C)(C)c1nc(-c2ccc(C(=O)N3CC4(CC(n5ccc(C6(C)CC6)n5)C4)C3)cc2)no1 [Example 9, [4-(5-tert-butyl-1,2,4-oxadiazol-3-yl)phenyl]-[6-[3-(1-methylcyclopropyl)pyrazol-1-yl]-2-azaspiro[3.3]heptan-2-yl]methanone] | 6.21 |
| COc1cnn(C2CC3(C2)CN(C(=O)c2ccc(-c4noc(C(C)(C)C)n4)cc2)C3)c1 [Example 11, [4-(5-tert-butyl-1,2,4-oxadiazol-3-yl)phenyl]-[6-(4-methoxypyrazol-1-yl)-2-azaspiro[3.3]heptan-2-yl]methanone] | 5.89 |
| CC(C)(C)c1nc(-c2ccc(C(=O)N3CC4(CC(n5cc6c(n5)CCOC6)C4)C3)cc2)no1 [Example 14, [4-(5-tert-butyl-1,2,4-oxadiazol-3-yl)phenyl]-[6-(6,7-dihydro-4H-pyrano[4,3-c]pyrazol-2-yl)-2-azaspiro[3.3]heptan-2-yl]methanone] | 6.71 |
| CC(C)(C)c1nc(-c2ccc(C(=O)N3CC4(CC(n5cc(F)cn5)C4)C3)cc2)no1 [Example 15, [4-(5-tert-butyl-1,2,4-oxadiazol-3-yl)phenyl]-[6-(4-fluoropyrazol-1-yl)-2-azaspiro[3.3]heptan-2-yl]methanone] | 5.57 |
| CC(C)(C)c1nc(-c2ccc(C(=O)N3CC4(CC(n5nccc5C(F)(F)F)C4)C3)cc2)no1 [Example 16, [4-(5-tert-buty1-1,2,4-oxadiazol-3-yl)phenyl]-[6-[5-(trifluoromethyl)pyrazol-1-yl]-2-azaspiro[3.3]heptan-2-yl]methanone] | 5.55 |
| CC(C)(C)c1nc(-c2ccc(C(=O)N3CC4(CC(n5ncnc5C5CC5)C4)C3)cc2)no1 [Example 17, [4-(5-tert-butyl-1,2,4-oxadiazol-3-yl)phenyl]-[6-(5-cyclopropyl-1,2,4-triazol-1-yl)-2-azaspiro[3.3]heptan-2-yl]methanone] | 5.47 |
| CC(C)(C)c1nc(-c2ccc(C(=O)N3CC4(CC(n5ncc6c5CCOC6)C4)C3)cc2)no1 [Example 18, [4-(5-tert-butyl-1,2,4-oxadiazol-3-yl)phenyl]-[6-(6,7-dihydro-4H-pyrano[4,3-c]pyrazol-1-yl)-2-azaspiro[3.3]heptan-2-yl]methanone] | 5.43 |
| COc1ccnn1C1CC2(C1)CN(C(=O)c1ccc(-c3noc(C(C)(C)C)n3)cc1)C2 [Example 19, [4-(5-tert-butyl-1,2,4-oxadiazol-3-yl)phenyl]-[6-(5-methoxypyrazol-1-yl)-2-azaspiro[3.3]heptan-2-yl]methanone] | 5.38 |
| CC(C)(C)c1nc(-c2ccc(C(=O)N3CC4(CC(n5ncc6c5CCCC6)C4)C3)cc2)no1 [Example 22, [4-(5-tert-butyl-1,2,4-oxadiazol-3-yl)phenyl]-[6-(4,5,6,7-tetrahydroindazol-1-yl)-2-azaspiro[3.3]heptan-2-yl]methanone] | 6.35 |
| Cc1ccc(C2CC3(C2)CN(C(=O)c2ccc(-c4noc(C(C)(C)C)n4)cc2)C3)cn1 [Example 23, [4-(5-tert-butyl-1,2,4-oxadiazol-3-yl)phenyl]−[6-(6-methyl-3-pyridyl)-2-azaspiro[3.3]heptan-2-yl]methanone] | 6.64 |
| O=C(c1cnc(OCC2(C(F)(F)F)CC2)nc1)N1CC2(CC(n3cnc(C4CC4)n3)C2)C1 [Example 31, [6-(3-cyclopropyl-1,2,4-triazol-1-yl)-2-azaspiro[3.3]heptan-2-yl]-[2-[[1-(trifluoromethyl)cyclo-propyl]methoxy]pyrimidin-5-yl] methanone] | 6.45 |
| Cc1cc(C(=O)N2CC3(CC(n4cnc(C5CC5)n4)C3)C2)nnc1OCC1(C(F)(F)F)CC1 [Example 32, [6-(3-cyclopropyl-1,2,4-triazol-1-yl)-2-azaspiro[3.3]heptan-2-yl]-[5-methyl-6-[[1-(trifluoromethyl)cyclo-propyl]methoxy]pyridazin-3-yl] methanone] | 5.55 |

The next molecules have a higher pIC50 than those just listed; values first:

| pIC50 | Structure (SMILES) |
| --- | --- |
| 7.48 | CC(C)(C)c1nc(-c2ccc(C(=O)N3CC4(CC(n5nccc5C5(C)CC5)C4)C3)cc2)no1 [Example 10, [4-(5-tert-butyl-1,2,4-oxadiazol-3-yl)phenyl]-[6-[5-(1-methylcyclopropyl)pyrazol-1-yl]-2-azaspiro[3.3]heptan-2-yl]methanone] |
| 7.44 | CC(C)(C)c1nc(-c2ccc(C(=O)N3CC4(CC(n5cc6c(n5)CCCC6)C4)C3)cc2)no1 [Example 12, [4-(5-tert-butyl-1,2,4-oxadiazol-3-yl)phenyl]-[6-(4,5,6,7-tetrahydroindazol-2-yl)-2-azaspiro[3.3]heptan-2-yl]methanone] |
| 6.82 | COc1ccn(C2CC3(C2)CN(C(=O)c2ccc(-c4noc(C(C)(C)C)n4)cc2)C3)n1 [Example 13, [4-(5-tert-butyl-1,2,4-oxadiazol-3-yl)phenyl]-[6-(3-methoxypyrazol-1-yl)-2-azaspiro[3.3]heptan-2-yl]methanone] |
| 7.09 | CC(C)(C)c1nc(-c2ccc(C(=O)N3CC4(CC(n5cnc(C#N)n5)C4)C3)cc2)no1 [Example 20, 1-[2-[4-(5-tert-butyl-1,2,4-oxadiazol-3-yl)benzoyl]-2-azaspiro[3.3]heptan-6-yl]-1,2,4-triazole-3-carbonitrile] |
| 8.11 | Cc1cc(C(=O)N2CC3(CC(n4cnc(C5CC5)n4)C3)C2)cnc1OCC1(C(F)(F)F)CC1 [Example 24, [6-(3-cyclopropyl-1,2,4-triazol-1-yl)-2-azaspiro[3.3]heptan-2-yl]-[5-methyl-6-[[1-(trifluoromethyl)cyclo-propyl]methoxy]-3-pyridyl]methanone] |
| 7.91 | Cc1cc(C(=O)N2CC3(CC(n4cnc(C5CC5)c4)C3)C2)cnc1OCC1(C(F)(F)F)CC1 [Example 25, [6-(4-cyclopropylimidazol-1-yl)-2-azaspiro[3.3]heptan-2-yl]-[5-methyl-6-[[1-(trifluoromethyl)cyclo-propyl]methoxy]-3-pyridyl]methanone] |
| 7.70 | O=C(c1cnc(OCC2(C(F)(F)F)CC2)c(F)c1)N1CC2(CC(n3cnc(C4CC4)n3)C2)C1 [Example 26, [6-(3-cyclopropyl-1,2,4-triazol-1-yl)-2-azaspiro[3.3]heptan-2-yl]−[5-fluoro-6-[[1-(trifluoromethyl)cyclopropyl]methoxy]-3-pyridyl]methanone] |
| 7.58 | Cc1nc(C(=O)N2CC3(CC(n4cnc(C5CC5)n4)C3)C2)cnc1OCC1(C(F)(F)F)CC1 [Example 27, [6-(3-cyclopropyl-1,2,4-triazol-1-yl)-2-azaspiro[3.3]heptan-2-yl]-[6-methyl-5-[[1-(trifluoromethyl)cyclo-propyl]methoxy]pyrazin-2-yl]methanone] |
| 7.30 | O=C(c1cnc(OCC2(C(F)(F)F)CC2)c(F)c1)N1CC2(CC(n3cnc(C4CC4)c3)C2)C1 [Example 28, [6-(4-cyclopropylimidazol-1-yl)-2-azaspiro[3.3]heptan-2-yl]-[5-fluoro-6-[[1-(trifluoromethyl)cyclo-propyl]methoxy]-3-pyridyl]methanone] |
| 7.28 | CC1(COc2ncc(C(=O)N3CC4(CC(n5cnc(C6CC6)n5)C4)C3)cc2F)CC1 [Example 29, [6-(3-cyclopropyl-1,2,4-triazol-1-yl)-2-azaspiro[3.3]heptan-2-yl]-[5-fluoro-6-[(1-methylcyclopropyl)methoxy]-3-pyridyl]methanone] |
| 6.97 | CC1(COc2ncc(C(=O)N3CC4(CC(n5cnc(C6CC6)c5)C4)C3)cc2F)CC1 [Example 30] |
| 9.40 | O=C(N1CC(c2ccc(OC(F)(F)F)cc2)C1)N1CC2(CC(n3cnc(C4CC4)n3)C2)C1 [Example 33, [6-(3-cyclopropyl-1,2,4-triazol-1-yl)-2-azaspiro[3.3]heptan-2-yl]−[3-[4-(trifluoromethoxy)phenyl]azetidin-1-yl]methanone] |
